Like-named read-outs stand apart in the source and are kept apart here.
Tests used:
HIV-1LAI.04 [1] = test: Anti-HIV-1 activity in MT-4 cell cultures; format: cell-based; details: MT-4 cells; for EC50: read-out: EC50 (MT-4), effective concentration that inhibits 50% of HIV-1 replication
HIV-1 US 3, R5 (clade B) = test: p24 production in virus-infected PBMC, HIV-1 US 3; format: cell-based; details: read-out: EC50, US 3
PBMC = PBMC MTS viability staining; format: cell-based, human
[2] = tested on: HIV-1 ETH 2220, R5 (clade C); test: p24 production in virus-infected PBMC, HIV-1 ETH 2220; format: cell-based; details: read-out: EC50, ETH 2220
MT-4 cells [3] = test: MT-4 cell growth / proliferation; format: cell-based, human; details: read-out: IC50 (MT-4), concentration that inhibit cell growth by 50%
HSV-2 (G) = test: HSV-2 replication in HIV-1/HSV-2 coinfected tonsillar tissue; format: cell-based; details: 1μM, n=5
[4] = tested on: HIV-1 UG 270, X4 (clade D); test: p24 production in virus-infected PBMC, HIV-1 UG 270; format: cell-based; details: read-out: EC50, UG 270
HSV-2 strain G = test: HSV-2 replication in human tonsillar tissue; format: cell-based; details: 1μM, day 12 post infection, n=4
HIV-1BaL = test: HIV-1 replication in human cervicovaginal tissue ex vivo; format: cell-based
HIV-1LAI.04 [5] = test: HIV-1 replication in HIV-1/HSV-2 coinfected tonsillar tissue; format: cell-based; details: 1μM, n=5
[6] = tested on: HIV-1 UG275, R5 (clade A); test: p24 production in virus-infected PBMC, HIV-1 UG275; format: cell-based; details: read-out: EC50, UG275
HIV-1 NL4.3 (X4) = test: p24 production in virus-infected PBMC, HIV-1 NL4.3; format: cell-based; details: read-out: EC50, NL4.3
HIV-1 = test: Anti-HIV-1 activity in CEM cell cultures; format: cell-based; details: for EC50: read-out: EC50 (CEM), effective concentration that inhibits 50% of HIV-1 replication, CEM cells
CEM cells [7] = test: in vitro; format: cell-based, human
[8] = tested on: HIV-1 ID12, R5 (clade A/E); test: p24 production in virus-infected PBMC, HIV-1 ID12; format: cell-based; details: read-out: EC50, ID12
HIV-1 BaL (R5) = test: p24 production in virus-infected PBMC, HIV-1 BaL; format: cell-based; details: read-out: EC50, BaL
CEM cells [9] = test: CEM cell growth; format: cell-based, human; details: read-out: IC50 (CEM), concentration that inhibit cell growth by 50%
[10] = tested on: clinical ACV-resistant HSV-2 isolate; test: ACV-resistant HSV-2 replication in human tonsillar tissue; format: cell-based; details: variant without functional thymidine kinase, n=2
MT-4 cells [11] = test: Viability assay in MT-4 cell cultures; format: cell-based, human
[12] = Viability assay in MT-4 cell cultures; format: cell-based, human; details: human, MT-4 cells
in vitro = format: cell-based, human; details: human
HIV-2ROD = test: Anti-HIV-2 activity in CEM cells; format: cell-based; details: HIV-2ROD-infected CEM cells; data not shown
HIV-1LAI.04 [13] = test: HIV-1 replication in human tonsillar tissue ex vivo; format: cell-based
HIV-1LAI.04 [14] = test: Flow-cytometry of HIV-infected; format: cell-based; details: tonsillar tissue, day 12 post infection; control 11.71 ± 3.87%; n=4
[15] = tested on: human tonsillar tissue T cells; format: cell-based

C[C@H](NP(=O)(OCCOCn1cnc2c(=O)[nH]c(N)nc21)Oc1ccccc1)C(=O)OCc1ccccc1 (stereo partly shown) [Cf2648]
SI, selective index or ratio of CC50 (MT-4)/EC50 (HIV-1LAI.04 [1]): > 26
EC50 (HIV-1LAI.04 [1]): 5.7 ± 1.6 µM
EC50 (HIV-1 US 3, R5 (clade B)): 28 ± 12 µM
CC50 (PBMC; read-out: CC50, 50% cytostatic concentration, PBMC, MTS viability staining method): 319 µM
EC50 [2]: 19 ± 14 µM
IC50 (MT-4 cells [3]): 34 ± 11 µM
inhibition of HSV-2 replication in HIV-1/HSV-2 coinfected lymphoid tissue (HSV-2 (G)): 99.6 ± 0.2%
EC50 [4]: 55 ± 40 µM
suppression of HSV-2 replication (HSV-2 strain G): 99.6 ± 0.3%
inhibition of HIV-1 replication, drug removed on day 3 post-infection (HIV-1BaL; cervicovaginal tissue, 1μM, not replenished, n=4): 57.1 ± 16.0%
inhibition of HIV replication, drug replenished at each medium change (HIV-1BaL; cervicovaginal tissue, 1μM, treated overnight then infected with HIV-1BaL, n=2): 100%
inhibition of HIV replication on day 12 post-infection, 3-day incubation followed by drug removal (HIV-1BaL; cervicovaginal tissue, 5μM, n=3): 90.3 ± 9.2%
inhibition of HIV replication in HIV-1/HSV-2 coinfected lymphoid tissue (HIV-1LAI.04 [5]): 81.1 ± 5.9%
EC50 [6]: 25 ± 10 µM
EC50 (HIV-1 NL4.3 (X4)): 13 ± 3.8 µM
EC50 (HIV-1): 6.4 ± 5.8 µM
CC50 (CEM cells [7]): > 150 µM
EC50 [8]: 16 ± 15 µM
EC50 (HIV-1 BaL (R5)): 6.6 ± 1.4 µM
IC50 (CEM cells [9]): 33 ± 7.1 µM
inhibition of replication of ACV-resistant HSV-2 variant [10]: 94.9 ± 5.1%

CCOC(=O)[C@H](C)NP(=O)(OCCOCn1cnc2c(=O)[nH]c(N)nc21)Oc1cccc2ccccc12 (stereo partly shown) [Cf2676]
SI, selective index or ratio of CC50 (MT-4)/EC50 (HIV-1LAI.04 [1]): > 88
EC50 (HIV-1LAI.04 [1]): 1.7 ± 0.8 µM
IC50 (MT-4 cells [3]): 12 ± 5.3 µM
CC50 (MT-4 cells [11]): > 150 µM
EC50 (HIV-1): 12 ± 9.8 µM
CC50 (CEM cells [7]): > 150 µM
IC50 (CEM cells [9]): 32 ± 7.8 µM

Nc1nc2c(ncn2COCCO)c(=O)[nH]1 [ACV, acyclovir, reference compound]
CC50 [12]: > 150 µM
suppression of viral replication (HIV-1; HIV-1IIIB-infected CEM cells, data not shown): did not efficiently suppress viral replication
CC50 (in vitro): > 150 µM
suppression of viral replication (HIV-2ROD): did not efficiently suppress viral replication

COC(=O)[C@H](C)NP(=O)(OCCOCn1cnc2c(=O)[nH]c(N)nc21)Oc1cccc2ccccc12 (stereo partly shown) [Cf2649]
SI, selective index or ratio of CC50 (MT-4)/EC50 (HIV-1LAI.04 [1]): > 32
EC50 (HIV-1LAI.04 [1]): 4.7 ± 2.1 µM
EC50 (HIV-1 US 3, R5 (clade B)): 4.9 ± 6.1 µM
CC50 (PBMC): 352 µM
EC50 [2]: 6.8 ± 3.9 µM
suppression of HIV replication in tonsillar tissue (HIV-1LAI.04 [13]; 1 μM): completely suppresses HIV replication
inhibition of HIV-1 replication, treatment started 2 days post-infection (HIV-1LAI.04 [13]; tonsillar tissue, 1μM, n=3): 94.4 ± 5.5%
inhibition of HIV-1 replication, treatment started 4 days post-infection (HIV-1LAI.04 [13]; tonsillar tissue, 1μM, n=3): 90.2 ± 9.8%
inhibition of HIV-1 replication, treatment started 6 days post-infection (HIV-1LAI.04 [13]; tonsillar tissue, 1μM, n=3): 54.1 ± 13.5%
inhibition of HIV-1 replication, treatment started simultaneously with infection (HIV-1LAI.04 [13]; tonsillar tissue, 1μM, n=3): 96.9 ± 3%
IC50 (MT-4 cells [3]): 19 ± 3.2 µM
EC50 [4]: 10 ± 12 µM
suppression of HIV-1BAL replication in cervicovaginal tissue (HIV-1BaL; 1 μM for 12 days, relative to donor-matched infected tissues, n=4): 75.8 ± 10.4%
CC50 (MT-4 cells [11]): > 150 µM
EC50 [6]: 16 ± 11 µM
EC50 (HIV-1 NL4.3 (X4)): 11 ± 3.1 µM
CC50 (CEM cells [7]): > 150 µM
EC50 [8]: 53 ± 4.4 µM
EC50 (HIV-1 BaL (R5)): 5.2 ± 2.4 µM
IC50 (CEM cells [9]): 57 ± 45 µM
fraction of CD8- T cells HIV-infected (p24+) (HIV-1LAI.04 [14]): 3.16 ± 1.63%

CC(C)OC(=O)[C@H](C)NP(=O)(OCCOCn1cnc2c(=O)[nH]c(N)nc21)Oc1cccc2ccccc12 (stereo partly shown) [Cf2681]
SI, selective index or ratio of CC50 (MT-4)/EC50 (HIV-1LAI.04 [1]): > 28
EC50 (HIV-1LAI.04 [1]): 5.4 µM
IC50 (MT-4 cells [3]): 73 µM
effect on numbers of CD4+ T cells and subsets in treated tissues [15]: did not affect the numbers of these cells
CC50 (MT-4 cells [11]): > 150 µM
EC50 (HIV-1): 6.2 ± 5.4 µM
CC50 (CEM cells [7]): > 150 µM
IC50 (CEM cells [9]): 36 ± 15 µM
